This assay deals with T1, human metabotropic glutamate receptor 5 (hmGluR5) (Homo sapiens, UniProt P41594).
T1 construct: expressed in transfected cells
The assay can be described thus: Calcium mobilization (FLIPR) assay for negative allosteric modulation, EC80 glutamate, hmGluR5 in HEK 293. The conditions noted are these: HEK293; hmGluR5, inhibition of EC80 glutamate response; read-out: FLIPR maximum inhibition. It counts as cell-based. As to the method:
The cDNA for rat metabotropic glutamate receptor 5 (rmGluR5) and the cDNA for human metabotropic glutamate receptor 5 (hmGluR5) were generous gifts from S. Nakanishi (Kyoto University, Kyoto, Japan). The rmGluR5 or hmGluR5 was stably expressed in a HEK 293 cell line and grown in Dulbecco's Modified Eagle Medium (DMEM) (Invitrogen, Carlsbad, Calif.) with supplements (10% bovine calf serum, 4 mM glutamine, 100 units/mL penicillin, 100 μg/mL streptomycin and 0.75 mM G1418) at 37° C., 5% CO2. Twenty-four hours prior to assay, cells were seeded into 384-well black wall microtiter plates coated with poly-D-lysine. Just prior to assay, media was aspirated and cells dye-loaded (25 μL/well) with 3 μM Fluo-4/0.01% pluronic acid in assay buffer (Hank's Balanced Saline Solution (HBSS)): 150 mM NaCl, 5 mM KCl, 1 mM CaCl2, 1 mM MgCl2, plus 20 mM N-2-Hydroxyethylpiperazine-N′-2-ethanesulfonic acid (HEPES), pH 7.4, 0.1% bovine serum albumin (BSA) and 2.5 mM probenicid) for 1 hour in 5% CO2 at 37° C. After excess dye was discarded, cells were washed in assay buffer and layered with a final volume equal to 30 μL/well. Basal fluorescence is monitored in a fluorometric imaging plate reader (FLIPR) (Molecular Devices, Sunnyvale, Calif.) with an excitation wavelength of 488 nm and an emission range of 500 to 560 nm. Laser excitation energy was adjusted so that basal fluorescence readings were approximately 10,000 relative fluorescent units. Cells were stimulated with an EC20 or an EC80 concentration of glutamate in the presence of a compound to be tested, both diluted in assay buffer, and relative fluorescent units were measured at defined intervals (exposure=0.6 sec) over a 3 min period at room temperature. Basal readings derived from negative controls were subtracted from all samples. Maximum change in fluorescence was calculated for each well. Concentration-response curves derived from the maximum change in fluorescence were analyzed by nonlinear regression (Hill equation). A negative modulator can be identified from these concentration-response curves if a compound produces a concentration dependent inhibition of the EC80 glutamate response.

The results in this text go back to patent publication US9359297B2, “Spirolactam derivatives and uses of same” (H. Lundbeck A/S, priority 2009, dated 2016).

T1 sequence (P41594 21-1212): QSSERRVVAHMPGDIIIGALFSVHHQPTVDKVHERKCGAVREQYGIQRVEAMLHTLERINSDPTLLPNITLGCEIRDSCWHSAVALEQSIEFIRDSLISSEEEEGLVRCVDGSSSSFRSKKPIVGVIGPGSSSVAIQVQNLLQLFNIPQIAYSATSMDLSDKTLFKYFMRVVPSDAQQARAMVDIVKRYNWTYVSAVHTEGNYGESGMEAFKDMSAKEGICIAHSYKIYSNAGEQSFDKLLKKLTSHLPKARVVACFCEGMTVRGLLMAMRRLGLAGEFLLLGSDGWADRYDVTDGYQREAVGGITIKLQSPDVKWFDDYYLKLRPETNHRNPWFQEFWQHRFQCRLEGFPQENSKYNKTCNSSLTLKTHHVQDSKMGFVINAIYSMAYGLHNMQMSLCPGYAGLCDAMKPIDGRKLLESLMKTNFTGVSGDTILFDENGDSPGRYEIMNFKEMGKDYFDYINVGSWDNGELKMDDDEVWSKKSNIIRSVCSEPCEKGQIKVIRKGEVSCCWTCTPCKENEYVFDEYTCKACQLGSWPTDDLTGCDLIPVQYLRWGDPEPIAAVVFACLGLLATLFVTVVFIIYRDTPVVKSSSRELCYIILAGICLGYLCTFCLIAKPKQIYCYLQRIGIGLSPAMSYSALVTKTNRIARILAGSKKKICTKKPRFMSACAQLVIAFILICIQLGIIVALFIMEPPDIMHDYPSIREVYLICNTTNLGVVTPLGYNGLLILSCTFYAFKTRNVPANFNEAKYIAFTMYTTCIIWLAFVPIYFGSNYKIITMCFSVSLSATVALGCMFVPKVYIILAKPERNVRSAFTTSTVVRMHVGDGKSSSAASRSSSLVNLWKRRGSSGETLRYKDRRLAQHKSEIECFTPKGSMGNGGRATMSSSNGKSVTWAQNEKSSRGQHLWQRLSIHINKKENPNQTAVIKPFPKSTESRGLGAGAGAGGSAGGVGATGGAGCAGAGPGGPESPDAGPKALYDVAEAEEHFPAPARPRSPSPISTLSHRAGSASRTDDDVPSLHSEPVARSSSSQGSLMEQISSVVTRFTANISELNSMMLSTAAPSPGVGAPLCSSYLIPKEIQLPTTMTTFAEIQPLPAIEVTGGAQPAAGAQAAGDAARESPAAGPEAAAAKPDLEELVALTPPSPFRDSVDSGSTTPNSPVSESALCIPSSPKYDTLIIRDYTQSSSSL

Regarding `Cc1cccc(C(=O)N[C@@H]2CC(F)(F)C[C@@]3(CCN(c4cccc(F)c4)C3=O)C2)n1` (relative stereo) [Example 107, cis-6-Methyl-pyridine-2-carboxylic acid [9,9-difluoro-2-(3-fluoro-phenyl)-1-oxo-2-aza-spiro[4.5]dec-7-yl]-amide], the Emax fell in the range of 47 to 93%.

On to `Cc1cccc(C(=O)N[C@@H]2CC(F)(F)C[C@@]3(CCN(c4ccnc(C)n4)C3=O)C2)n1` (relative stereo) [Example 108, cis-6-Methyl-pyridine-2-carboxylic acid [9,9-difluoro-2-(2-methyl-pyrimidin-4-yl)-1-oxo-2-aza-spiro[4.5]dec-7-yl]-amide], for which the Emax was in the range of 47 to 93%.

Consider `O=C(N[C@@H]1CC(F)(F)C[C@@]2(CCN(c3ccc(F)cn3)C2=O)C1)c1ccccn1` (relative stereo) [Example 111, cis-Pyridine-2-carboxylic acid [9,9-difluoro-2-(5-fluoro-pyridin-2-yl)-1-oxo-2-aza-spiro[4.5]dec-7-yl]-amide], for which the Emax fell in the range of 47 to 93%.

In the case of `Cc1nccc(N2CC[C@]3(C[C@H](NC(=O)c4ccccn4)CC(F)(F)C3)C2=O)n1` (relative stereo) [Example 112, cis-Pyridine-2-carboxylic acid [9,9-difluoro-2-(2-methyl-pyrimidin-4-yl)-1-oxo-2-aza-spiro[4.5]dec-7-yl]-amide], the Emax is 47 to 93%.

With `Cc1nccc(C(=O)N[C@@H]2CC(=O)C[C@@]3(CCN(c4cc(F)cc(F)c4)C3=O)C2)n1` (relative stereo) [Example 115, cis-2-Methyl-pyrimidine-4-carboxylic acid [2-(3,5-difluoro-phenyl)-1,9-dioxo-2-aza-spiro[4.5]dec-7-yl]-amide], the Emax fell in the range of 47 to 93%.

Take `Cc1nccc(C(=O)N[C@@H]2C[C@H](O)C[C@@]3(CCN(c4cc(F)cc(F)c4)C3=O)C2)n1` (relative stereo) [Example 116, cis-2-Methyl-pyrimidine-4-carboxylic acid [2-(3,5-difluorphenyl)-9-hydroxy-1-oxo-2-aza-spiro[4.5]dec-7-yl]-amide]: the Emax is 47 to 93%.

Consider `Cc1nccc(C(=O)N[C@@H]2C[C@@H](O)C[C@@]3(CCN(c4cc(F)cc(F)c4)C3=O)C2)n1` (relative stereo) [Example 117, trans-2-Methyl-pyrimidine-4-carboxylic acid [2-(3,5-difluorphenyl)-9-hydroxy-1-oxo-2-aza-spiro[4.5]dec-7-yl]-amide], for which the Emax was 47 to 93%.

Consider `Cc1nccc(C(=O)N[C@@H]2C[C@@H](F)C[C@@]3(CCN(c4cc(F)cc(F)c4)C3=O)C2)n1` (relative stereo) [Example 122, trans-2-Methyl-pyrimidine-4-carboxylic acid [2-(3,5-difluoro-phenyl)-9-fluoro-1-oxo-2-aza-spiro[4.5]dec-7-yl]-amide], for which the Emax lay in the range of 47 to 93%.

Consider `O=C1C[C@@H](NC(=O)c2cccc(F)c2)C[C@]2(CCN(c3cccc(F)c3)C2=O)C1` (relative stereo) [Example 123, cis-3-Fluoro-N-[2-(3-fluoro-phenyl)-1,9-dioxo-2-aza-spiro[4.5]dec-7-yl]-benzamide], for which the Emax was 47 to 93%.

In the case of `Cc1cccc(C(=O)N[C@@H]2CC(=O)C[C@@]3(CCN(c4cccc(F)c4)C3=O)C2)n1` (relative stereo) [Example 124, cis-6-Methyl-pyridine-2-carboxylic acid [2-(3-fluoro-phenyl)-1,9-dioxo-2-aza-spiro[4.5]dec-7-yl]-amide], the Emax is 47 to 93%.

`O=C(N[C@@H]1C[C@@H](O)C[C@@]2(CCN(c3cccc(F)c3)C2=O)C1)c1cccc(F)c1` (relative stereo) [Example 125, trans-3-Fluoro-N-[2-(3-fluoro-phenyl)-9-hydroxy-1-oxo-2-aza-spiro[4.5]dec-7-yl]-benzamide]: the Emax lay in the range of 47 to 93%.
